Our source for the IC50 values is patent US11306064B2, “Benzothia(di)azepine compounds and their use as bile acid modulators” (Albireo AB, priority 2018, dated 2022).

For this experiment, the target named is T1, Human ASBT (Homo sapiens, UniProt Q12908).
T1 construct: expressed in transfected cells; kept under Puromycin selection
T1 sequence (Q12908 1-348): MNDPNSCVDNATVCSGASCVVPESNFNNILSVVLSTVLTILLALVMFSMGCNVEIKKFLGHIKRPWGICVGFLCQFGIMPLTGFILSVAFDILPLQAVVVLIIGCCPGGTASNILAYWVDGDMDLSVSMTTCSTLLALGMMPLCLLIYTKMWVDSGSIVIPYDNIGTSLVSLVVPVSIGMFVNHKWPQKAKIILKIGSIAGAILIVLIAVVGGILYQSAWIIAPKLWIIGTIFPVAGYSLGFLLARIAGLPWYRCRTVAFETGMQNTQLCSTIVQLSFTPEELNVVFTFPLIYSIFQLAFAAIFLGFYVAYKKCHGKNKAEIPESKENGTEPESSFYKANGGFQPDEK
As to the kind of experiment: ASBT (h/m) assay: 3H-taurocholic acid uptake in human ASBT-overexpressing cells. To be noted: 0.25 μM 3H-taurocholic acid and 5 μM cold taurocholic acid, 20 minutes, read-out: hASBT IC50. It counts as cell-based. The gist of the method:
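ASBT-overexpressing cells, seeded 48 h earlier, took up 0.25 µM 3H-taurocholic acid plus 5 µM cold taurocholate for 20 min at 37 °C with inhibitor (10-point 3-fold series, top 10 µM, 0.2% DMSO). Ice stop, washes with cold 1 mM taurocholate in HEPES-HBSS pH 7.4, scintillation counting.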

On to `CCCCC1(CC)CN(c2ccccc2)c2cc(Br)c(O/C=C/C(=O)O)cc2S(=O)(=O)C1` (single isomer, unassigned) [Example 6, (E)-3-((7-bromo-3-butyl-3-ethyl-1,1-dioxido-5-phenyl-2,3,4,5-tetrahydro-1,5-benzothiazepin-8-yl)oxy)acrylic acid], for which the IC50 stood at 57 nM.

For the molecule `CCCCC1(CC)CN(c2ccccc2)c2cc(SC)c(O/C=C/C(=O)O)cc2S(=O)(=O)C1` (single isomer, unassigned) [Example 18, (E)-3-((3-butyl-3-ethyl-7-(methylthio)-1,1-dioxido-5-phenyl-2,3,4,5-tetrahydro-1,5-benzothiazepin-8-yl)oxy)acrylic acid], the IC50 turned out to be 19 nM.

For `CCCCC1(CC)CN(c2ccccc2)c2cc(SC)c(O/C=C(\F)C(=O)O)cc2S(=O)(=O)C1` (single isomer, unassigned) [Example 43, (Z)-3-((3-butyl-3-ethyl-7-(methylthio)-1,1-dioxido-5-phenyl-2,3,4,5-tetrahydro-1,5-benzothiazepin-8-yl)oxy)-2-fluoroacrylic acid], the IC50 is 21 nM.

As for `CCCCC1(CC)CN(c2ccccc2)c2cc(Cl)c(O/C=C(\F)C(=O)O)cc2S(=O)(=O)C1` (single isomer, unassigned) [Example 48, (Z)-3-((3-butyl-7-chloro-3-ethyl-1,1-dioxido-5-phenyl-2,3,4,5-tetrahydro-1,5-benzothiazepin-8-yl)oxy)-2-fluoroacrylic acid], the IC50 was 42 nM.

Turning to `CCCCC1(CCCC)CN(c2ccccc2)c2cc(SC)c(O/C=C(\F)C(=O)O)cc2S(=O)(=O)C1` [Example 11, (Z)-3-((3,3-dibutyl-7-(methylthio)-1,1-dioxido-5-phenyl-2,3,4,5-tetrahydro-1,5-benzothiazepin-8-yl)oxy)-2-fluoroacrylic acid], the IC50 amounted to 48 nM.

Take `CCC1(CC)CN(c2ccccc2)c2cc(SC)c(O/C=C(\F)C(=O)O)cc2S(=O)(=O)C1` [Example 44, (Z)-3-((3,3-diethyl-7-(methylthio)-1,1-dioxido-5-phenyl-2,3,4,5-tetrahydro-1,5-benzothiazepin-8-yl)oxy)-2-fluoroacrylic Acid]: the IC50 was found to be 257 nM.

Usually IC50 stands for the midpoint of a concentration-inhibition curve.
